The target of the first experiment is T1, REV-ERBα LBD (human; residues 281-614 Δ324-422) (Homo sapiens, UniProt P20393, DEL324-422).
T1 construct: 6×Histag-REV-ERBα LBD (human; residues 281-614 Δ324-422); made in house; host or cells: Escherichia coli
T1 sequence (P20393 with tags, fused parts or gaps DEL324-422): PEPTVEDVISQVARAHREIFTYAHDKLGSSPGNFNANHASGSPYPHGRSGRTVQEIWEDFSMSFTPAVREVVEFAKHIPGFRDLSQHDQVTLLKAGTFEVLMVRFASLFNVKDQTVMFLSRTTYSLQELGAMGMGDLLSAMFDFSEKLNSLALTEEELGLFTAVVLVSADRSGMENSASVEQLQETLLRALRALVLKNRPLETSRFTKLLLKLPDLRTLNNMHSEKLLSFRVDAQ
T1 sequence (Q9Y618 2335-2356 partner limits assumed): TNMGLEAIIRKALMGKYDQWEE
Briefly: TR-FRET corepressor interaction assay (REV-ERBα LBD, FITC-SMRT peptide). In kind it is biochemical. The conditions noted are these: FITC-SMRT peptide, read-out: REVERBα agonism (EC50 class, FRET assay). The essentials: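 Compound serial dilutions (in DMSO, triplicate) incubated 2 h at 4 °C; Tb donor excited at 340 nm, emission read at 495 nm and FITC acceptor at 520 nm. TR-FRET ratio (520/495 nm) plotted against ligand concentration and fitted to a sigmoidal dose-response curve.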
In general terms: Time-resolved FRET reads energy transfer from a long-lived donor to a nearby acceptor.
Take `CC(C)(C)Cn1cc([C@H](NS(=O)(=O)C2CC2)C(F)F)c2ccc(-c3ccccc3C(F)(F)F)c(F)c21` [Example 553, (S)—N-(2,2-difluoro-1-(7-fluoro-1-neopentyl-6-(2-(trifluoromethyl)phenyl)-1H-indol-3-yl)ethyl)cyclopropanesulfonamide]: the EC50 (in general, the concentration giving half of the maximal effect) is less than 500 nM. Same read-out and setting: then `CC(C)(C)Cn1cc([C@H](NS(=O)(=O)C2CC2)C(F)F)c2ccc(-c3c(C#N)cccc3C(F)(F)F)cc21` [Example 545, (S)—N-(1-(6-(2-cyano-6-(trifluoromethyl)phenyl)-1-neopentyl-1H-indol-3-yl)-2,2-difluoroethyl)cyclopropanesulfonamide], with less than 500 nM; and `CCS(=O)(=O)NCCn1cc(CC(C)(C)C)c2cc(-c3ccc(C(F)(F)F)cc3C(F)(F)F)ccc21` [Example 502, N-(2-(5-(2,4-bis(trifluoromethyl)phenyl)-3-neopentyl-1H-indol-1-yl)ethyl)ethanesulfonamide], with less than 500 nM; and `CC(C)(C)Cn1cc([C@@H](CF)NS(=O)(=O)C2CCC2)c2cc(F)c(-c3ccccc3C(F)(F)F)cc21` [Example 436, (S)—N-(2-fluoro-1-(5-fluoro-1-neopentyl-6-(2-(trifluoromethyl)phenyl)-1H-indol-3-yl)ethyl)cyclobutanesulfonamide], with less than 500 nM. Same read-out and setting: to `CC(C)Cn1cc([C@H](NS(=O)(=O)C2CC2)C(F)(F)F)c2cc(F)c(-c3ccnc4c3CCCC4)cc21` [Example 454, N-[(1S)-2,2,2-trifluoro-1-[5-fluoro-1-isobutyl-6-(5,6,7,8-tetrahydroquinolin-4-yl)indol-3-yl]ethyl]cyclopropanesulfonamide] belongs less than 500 nM.

Take `CC(C)(C)Cn1cc([C@H](NS(=O)(=O)C2CC2)C(F)(F)F)c2cc(C(F)(F)F)c(-c3ccncc3)cc21` [Example 458, (S)—N-(2,2,2-trifluoro-1-(1-neopentyl-6-(pyridin-4-yl)-5-(trifluoromethyl)-1H-indol-3-yl)ethyl)cyclopropanesulfonamide]: the EC50 was in the range of 500 to 3000 nM. For the compound `CC(C)(C)Cn1cc([C@H](NS(=O)(=O)C2CC2)C(F)(F)F)c2ccc(-c3cccnc3C#N)cc21` [Example 466, (S)—N-(1-(6-(2-cyanopyridin-3-yl)-1-neopentyl-1H-indol-3-yl)-2,2,2-trifluoroethyl)cyclopropanesulfonamide], the EC50 is less than 500 nM. On the same count and under the same terms, to `CCCn1cc([C@H](NS(=O)(=O)C2CCC2)C(F)(F)F)c2ccc(-c3ccccc3C(F)(F)F)cc21` [Example 438, (S)—N-(2,2,2-trifluoro-1-(1-propyl-6-(2-(trifluoromethyl)phenyl)-1H-indol-3-yl)ethyl)cyclobutanesulfonamide] belongs less than 500 nM. On the same count and under the same terms, to `CC(C)(C)Cn1cc([C@H](NS(=O)(=O)C2CC2)C(F)(F)F)c2ccc(-c3ccc(F)cc3C#N)cc21` [Example 472, (S)—N-(1-(6-(2-cyano-4-fluorophenyl)-1-neopentyl-1H-indol-3-yl)-2,2,2-trifluoroethyl)cyclopropanesulfonamide] belongs less than 500 nM.

Staying with this experiment, now noted: Table 2, read-out: REVERBα agonism (EC50 class, FRET assay).
Regarding `CN(C)S(=O)(=O)NCCc1cn(Cc2ccc(F)cc2F)c2cc(-c3ccncc3)ccc12` [Example 149, N-{2-[6-(pyridin-4-yl)-1-(2,4-difluorobenzyl)-1H-indol-3-yl]ethyl}-N,N-dimethylsulfuric diamide], the EC50 is 500 to 3000 nM. Still for that read-out and setting: then `CC(C)(O)Cn1cc([C@H](NS(=O)(=O)C2CCC2)C(F)(F)F)c2ccc(-c3ccccc3C(F)(F)F)nc21` (racemic) [Example 412, N-[rac-(1S)-2,2,2-trifluoro-1-[1-(2-hydroxy-2-methyl-propyl)-6-[2-(trifluoromethyl)phenyl]pyrrolo[2,3-b]pyridin-3-yl]ethyl]cyclobutanesulfonamide], with 500 to 3000 nM; and `CC(C)Cn1cc(CCNS(=O)(=O)N(C)C)c2ccc(-c3ccccc3-c3ccccc3)cc21` [Example 74, N-{2-[6-[(1,1-diphenyl)-2yl]-1-(2-methylpropyl)-1H-indol-3-yl]ethyl}-N,N-dimethylsulfuric diamide], with more than 3000 nM.

As for `CC(C)Cn1cc(CCNS(=O)(=O)N(C)C)c2ccc(-c3ccccc3C(=O)OC(C)(C)C)cc21` [Example 79], the EC50 lay in the range of 500 to 3000 nM.

For `CC(C)(C)Cn1cc([C@H](NS(=O)(=O)C2CC2)C(F)(F)F)c2ccc(-c3ccc(F)c(C#N)c3)cc21` [Example 387, (S)—N-(1-(6-(3-cyano-4-fluorophenyl)-1-neopentyl-1H-indol-3-yl)-2,2,2-trifluoroethyl)cyclopropanesulfonamide], the EC50 was 500 to 3000 nM. `CC(C)Cn1cc(CCNS(=O)(=O)N(C)C)c2ccc(-c3ccccc3CO)cc21` [Example 76, N-{2-[6-(2-hydroxylmethylphenyl)-1-(2-methylpropyl)-1H-indol-3-yl]ethyl}-N,N-dimethyl-sulfuric diamide]: the EC50 lay in the range of 500 to 3000 nM. The same measure, in the same setting: to `CC(C)Cn1cc(CCNS(=O)(=O)N(C)C)c2ccc(NC(=O)Cc3ccccc3)cc21` [Compound 70, N-(3-{2-[(dimethylsulfamoyl)amino]ethyl}-1-(2-methylpropyl)-1H-indol-6-yl)-2-phenylacetamide] belongs more than 3000 nM; to `Cc1c(CCNS(=O)(=O)N(C)C)c2ccc(-c3ccncc3)cc2n1CC(C)C` [Compound 236], 500 to 3000 nM. The same measure, in the same setting: to `CCN(CCc1cn(CC)c2cc(-c3ccncc3)ccc12)S(=O)(=O)N(C)C` [Example 133, N′-{2-[6-(pyridin-4-yl)-1-ethyl-1H-indol-3-yl]ethyl}-N′-ethyl-N,N-dimethylsulfuric diamide] belongs 500 to 3000 nM; to `CC(C)Cn1cc([C@H](NS(=O)(=O)C2CC2)C(F)(F)F)c2ccc(-c3ccccc3C(F)(F)F)cc21` [Example 325], less than 500 nM; to `CC(C)Cn1cc(CNS(=O)(=O)C(C)C)c2cc(F)c(-c3ccccc3C(F)(F)F)cc21` [Compound 269], less than 500 nM.

As to `CC(C)Cn1cc(CC(=O)NS(=O)(=O)N(C)C)c2ccc(-c3ccncc3)cc21` [Compound 234], the EC50 was more than 3000 nM. As for `CC(C)(C)Cc1cn(CCNS(=O)(=O)C2CC2)c2ccc(-c3ccc4ccccc4c3)cc12` [Example 210, N-(2-(5-(naphthalen-2-yl)-3-neopentyl-1H-indol-1-yl)ethyl)cyclopropane-sulfonamide], the EC50 fell in the range of 500 to 3000 nM.

In the case of `CC(C)Cn1cc(C2(CNS(=O)(=O)N(C)C)CC2)c2ccc(-c3ccncc3)cc21` [Example 178, dimethyl[({1-[1-(2-methylpropyl)-6-(pyridin-4-yl)-1H-indol-3-yl]cyclopropyl}methyl)sulfamoyl]amine], the EC50 was less than 500 nM.

In the case of `CN(C)S(=O)(=O)NCCc1cn(Cc2ccccn2)c2cc(Br)ccc12` [Example 161, [(2-{6-bromo-1-[(pyridin-2-yl)methyl]-1H-indol-3-yl}ethyl)sulfamoyl]dimethylamine], the EC50 was 500 to 3000 nM.

Turning to `CC(C)C(=O)n1cc(CNS(=O)(=O)N(C)C)c2ccc(-c3ccncc3)cc21` [Example 182, 1-(3-{[(dimethylsulfamoyl)amino]methyl}-6-(pyridin-4-yl)-1H-indol-1-yl)-2-methylpropan-1-one], the EC50 fell in the range of 500 to 3000 nM. Same read-out and setting: to `CC(C)Cn1cc(CNS(=O)(=O)C(C)C)c2cc(F)c(-c3ccccc3)cc21` [Compound 266] belongs less than 500 nM; to `CC(C)Cn1cc(CNS(=O)(=O)C2CCCC2)c2ccc(-c3ccncc3)cc21` [Compound 243], less than 500 nM. Same read-out and setting: to `CN(C)S(=O)(=O)NCCc1cn(CCc2ccccc2)c2cc(-c3ccncc3)ccc12` [Example 154, N′-{2-[6-(pyridin-4-yl)-1-phenethyl-1H-indol-3-yl]ethyl}-N,N-dimethylsulfuric diamide] belongs 500 to 3000 nM; to `CC(C)(C)Cn1cc([C@H](NS(=O)(=O)C2CC2)C(F)(F)F)c2ccc(-c3ccc(F)cc3C(F)(F)F)cc21` [Example 367, (S)—N-(2,2,2-trifluoro-1-(6-(4-fluoro-2-(trifluoromethyl)phenyl)-1-neopentyl-1H-indol-3-yl)ethyl)cyclopropanesulfonamide], less than 500 nM. On the same count and under the same terms, then `CC(C)Cn1cc(CCNS(=O)(=O)C(C)C)c2cc(F)c(-c3ccccc3)cc21` [Compound 261], with less than 500 nM; and `CC(C)Cn1cc(CC(C)NS(=O)(=O)C(C)C)c2ccc(-c3ccncc3)cc21` (stereo not shown) [Compound 275], with 500 to 3000 nM.

Turning to `CC(C)CC(=O)n1cc(CCNS(=O)(=O)N(C)C)c2ccc(-c3ccncc3)cc21` [Compound 155, 1-(3-{2-[(dimethylsulfamoyl)amino]ethyl}-6-(pyridin-4-yl)-1H-indol-1-yl)-3-methylbutan-1-one], the EC50 lay within 500 to 3000 nM. Still for that read-out and setting: to `CC(C)Cn1cc(CCS(=O)(=O)C(C)C)c2ccc(Br)cc21` [Compound 247] belongs 500 to 3000 nM; to `CC(C)Cn1cc([C@H](NS(=O)(=O)C2CC2)C(F)(F)F)c2ccc(Br)cc21` [Example 306, (S)—N-(1-(6-bromo-1-isobutyl-1H-indol-3-yl)-2,2,2-trifluoroethyl)cyclopropanesulfonamide], less than 500 nM. Same read-out and setting: to `CC(C)Cn1cc([C@H](NS(=O)(=O)C2CC2)C(F)(F)F)c2ccc(-c3ccnn3C)cc21` [Example 370, (S)—N-(2,2,2-trifluoro-1-(1-isobutyl-6-(1-methyl-1H-pyrazol-5-yl)-1H-indol-3-yl)ethyl)cyclopropanesulfonamide] belongs less than 500 nM; to `CC(C)(C)Cn1cc([C@H](NS(=O)(=O)C2CC2)C(F)(F)F)c2ccc(Br)c(F)c21` [Example 369, (S)—N-(1-(6-bromo-7-fluoro-1-neopentyl-1H-indol-3-yl)-2,2,2-trifluoroethyl)cyclopropanesulfonamide], 500 to 3000 nM; to `CN(C)S(=O)(=O)NCCc1cn(Cc2ccc(F)cc2)c2cc(-c3ccncc3)ccc12` [Example 146, N-{2-[6-(pyridin-4-yl)-1-(4-fluorobenzyl)-1H-indol-3-yl]ethyl}-N,N-dimethylsulfuric diamide], 500 to 3000 nM.

Source of the values: US20230339886A1 (University of Florida Research Foundation, Incorporated, priority 2020, published 2023).
